Data taken from paper PMC12847094, “Casticin inhibits AKR1C3 and enhances abiraterone efficacy in castration-resistant prostate cancer” (Journal of Natural Medicines, 2025).
pIC50: −log10 of the molar value.

Target: T1, aldo-keto reductase 1C3 (AKR1C3) (Homo sapiens, UniProt P42330)
T1 construct: recombinant hAKR1C3 expressed in E. coli Rosetta (DE3), pET21b
Experiment: NADPH oxidation at […] nm with […],10-phenanthrenequinone, recombinant enzyme; also coumberone reduction in […]1 cells
Format: biochemical

T1 sequence (P42330 whole entry): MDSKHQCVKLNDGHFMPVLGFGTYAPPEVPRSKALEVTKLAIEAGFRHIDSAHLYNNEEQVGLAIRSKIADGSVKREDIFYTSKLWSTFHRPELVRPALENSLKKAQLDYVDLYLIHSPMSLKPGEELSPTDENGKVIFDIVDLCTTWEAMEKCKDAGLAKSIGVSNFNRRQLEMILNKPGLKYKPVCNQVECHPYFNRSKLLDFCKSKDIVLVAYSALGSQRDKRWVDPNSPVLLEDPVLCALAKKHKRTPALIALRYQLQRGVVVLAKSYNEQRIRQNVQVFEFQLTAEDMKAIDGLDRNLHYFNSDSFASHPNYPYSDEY

COc1ccc(-c2oc3cc(OC)c(OC)c(O)c3c(=O)c2OC)cc1O [CAS, casticin]
pIC50: 5.22
